Results on 18 compounds are retold here after PubChem BioAssay (NCI).

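A five-concentration, 48-hour dose response in 96-well plates underlies each endpoint, interpolated linearly between surrounding concentrations. GI50 marks 50% less growth. TGI denotes the concentration required for complete inhibition of growth.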 Bounds are passed on as bounds.

Common to all, as to test: NCI-60 cell line screen, 48 h
Test [1] concerns KM12 colon.
Test [2] relates to EKVX NSCLC.
Test [3] relates to HT29 colon.
Test [4] has as its system 786-0 renal.
Test [5] deals with MALME-3M melanoma.
Test [6] deals with OVCAR-8 ovarian.
Test [7] relates to NCI-H522 lung.
Test [8] concerns DU-145 prostate.
Test [9] relates to MDA-MB-435.

Consider `N#CC1=C(Cl)NC(Cl)=C(C#N)C1c1c(Cl)cccc1Cl`, for which the TGI in test [1] was 48.6 µM; in test [2], over 100 µM; in test [3], over 100 µM; in test [4], 68.5 µM; in [5], over 100 µM; in test [6], 80 µM. In [7], this compound gave a TGI of 38.1 µM.
For `O=S(=O)(C/C(=N\O)c1ccccc1)c1ccccc1`, the TGI in [1], in [2], in test [3], in test [4], in test [5] and in test [6] was over 100 µM each time. In [7], this compound gave a TGI of over 100 µM.
For the compound `CCC(=O)N/N=C(\C=C\c1cccc(O)c1)c1sc(Nc2ccc(C)cc2[N+](=O)[O-])nc1C`, the TGI is over 100 µM in [1]; over 100 µM in [2]; 40.6 µM in test [3]; over 100 µM in test [4]; over 100 µM in test [5]; over 100 µM in test [6]. Also, the TGI in test [7] was over 100 µM.
On to `O=C1C=CC(CC(=O)c2ccc3ccccc3c2)O1` (stereo unspecified), for which the TGI in test [1] is 31.4 µM; in test [2] it was over 100 µM; in test [3], 33.1 µM; in [4] it was 39.1 µM; in [5], over 100 µM; in test [6], 32.8 µM.
Consider `CN(C)C(=S)/N=c1\ss/c(=N\S(=O)(=O)c2ccccc2)n1N(C)C`, for which the TGI in [1] was over 100 µM; in test [2] it was over 100 µM; in [4], over 100 µM; in test [5], over 100 µM; in [6], over 100 µM; in test [7] it was 37.8 µM.
As to `Nn1c(N=Nc2c(O)[nH]c3c(Cl)cc(Cl)cc23)n[nH]c1=S`, the TGI in [1], in test [2], in test [3], in test [4], in [5] and in [6] was over 100 µM in each case. Moreover, in [7], the TGI was over 100 µM.
For the compound `COC(=O)C1=C(c2ccc3c(c2)OCO3)OC(c2cc(OC)c(OC)c(OC)c2)C1` (stereo unspecified), the TGI is over 100 µM in [2]; 4.63 µM in test [3]; over 100 µM in [4]; over 100 µM in [5]; 92.4 µM in [6].
Take `O=C(NO)c1ccc(O)c(O)c1`: the TGI in test [1], in test [2], in [3], in test [4], in [5] and in test [6] was over 100 µM each time. In addition, the TGI in test [7] is over 100 µM.
In the case of `O=C1NC(=O)C2C1N(Cc1ccccc1)C(=O)N2Cc1ccccc1` (stereo unspecified), the TGI in test [1], in test [2], in [3], in test [4], in test [5] and in test [7] was over 100 µM in each case.
Take `CCC(Oc1ccc(OC)c2ccccc(=O)c12)C(=O)O` (stereo unspecified): the TGI in test [1], in test [2], in test [3], in [4], in test [5] and in [6] was over 100 µM each time. In test [7], the TGI is over 100 µM.
Consider `Cc1cccc(C(C)(C)C)c1NC(=O)CC1Sc2ccccc2NC1=O` (stereo unspecified), for which the TGI in test [1], in test [2], in [3], in test [4], in [5] and in test [6] was over 100 µM each time. For the same compound, in test [7], the TGI is over 100 µM.
On to `O=C(/C=C1/Nc2ccc([N+](=O)[O-])cc2NC1O)c1cccc([N+](=O)[O-])c1` (stereo unspecified), for which the TGI in test [2] was over 100 µM; in test [3] it was over 100 µM; in test [4], 47.8 µM; in [5], over 100 µM; in [6], 48.7 µM; in test [7] it was over 100 µM.
In the case of `COC1=C2CC(C)CC(OC)C(O)C(C)/C=C(\C)C(OC(N)=O)C(OC)/C=C\C=C(/C)C(=O)NC(=C(/C=N/N3CCCCC3)C1=O)C2=O` (stereo unspecified), the TGI in test [1] was found to be 25.1 µM; in test [2], 14.7 µM; in test [3], 26.6 µM; in test [4] it was 22.8 µM; in test [5], 28.7 µM; in test [6], 16.6 µM. Besides, the TGI in test [8] came out at 32.9 µM; in [7], 7.87 µM.
As to `c1ccc(CNc2nc(Nc3ccccc3)nc3ccccc23)cc1`, the GI50 was 2.92 µM in [1]; 2.06 µM in test [3]; 1.66 µM in [4]; 1.7 µM in test [5]; 1.72 µM in test [9]; 1.99 µM in test [6]. Further, the GI50 in test [8] was 3.06 µM; in [7] it was 1.45 µM. Also, the TGI in test [1] came out at 10.1 µM; in test [3] it was 4.88 µM; in [4], 3.12 µM; in test [5] it was 3.38 µM; in test [9] it was 3.67 µM; in test [6], 5.09 µM. In addition, the results for the TGI in [8] and in [7] were 10.7 µM and 3.23 µM, respectively.
Turning to `Cc1cccc2nc3cccc(C(=O)NCCN(C)C)c3nc12`, the TGI in test [1] was determined as 77.3 µM; in test [2], 2.03 µM; in test [3], 5.44 µM; in test [4] it was 14.6 µM; in test [6], 15.8 µM.
Take `CC1=CC(=O)N(c2c(C)cccc2Cl)C(C)N1` (stereo unspecified): the TGI in test [1], in [2], in test [3], in [4], in test [5] and in [6] was over 100 µM throughout. Besides, in test [7], the TGI was over 100 µM.
For `O=C(O)CCSC(=O)Nc1ccc(N=Nc2ccccc2)cc1`, the TGI in [1], in [2], in [3], in test [4], in [5] and in test [6] was over 100 µM in each case.
In the case of `CN1CC(=O)N(C)c2nc[nH]c2C1=O`, the TGI in test [1], in test [2], in test [3], in test [4], in test [5] and in test [6] was over 100 µM throughout.
